Test system: glycosaminoglycan (GAG) accumulation in MSD NSCs
Experiment: Alcian blue staining of GAGs in differentiated NSCs from MSD mice (FIG. 22)
Format: cell-based, mouse
Conditions: glia-differentiated MSD NSCs, 10 nM, 24 hours, versus DMSO
Description: After 24 hours, the GAG content was determined by alcian blue (AB) staining. Both torins were able to reduce GAG staining in MSD treated cells as compared to DMSO treated cells.
Neuronal progenitor cells were isolated from cortices of WT and MSD pups (P0) by tissue homogenization using the neural tissue dissociation kit and separation using magnetic sorting of cells expressing the stem cell marker prominin-1 (Miltenyi Biotec Srl). Neuronal progenitor cells were maintained in ESGRO complete medium (Hyclone) in the presence of EGF and FGF2 growth factors (Prepotech). Where indicated, neural stem cells (NSCs) were differentiated by removing growth factors and incubate in ESGRO medium containing 2% of serum for at least 48 h.
Neuronal progenitor cells were isolated from cortices of WT and MSD pups (P0) by using standard protocols. Neuronal stem cells (NSCs) were fixed in Methacarn (60% Methanol; 10% Acetic Acid; 30% Chloroform) for 15 min at RT. After washing the cells were stained for 3 hours in 1% alcian blue pH 2.5, rinsed in 0.3% acetic acid and water and mounted in 100% for visualization.

CCC(=O)N1CCN(c2ccc(-n3c(=O)ccc4cnc5ccc(-c6cnc7ccccc7c6)cc5c43)cc2C(F)(F)F)CC1 [TORIN 1]
alcian blue-stained GAGs: striking reduction

— US20140038920A1, “TFEB PHOSPHORYLATION INHIBITORS AND USES THEREOF” (FONDAZIONE TELETHON, priority 2011, published 2014)
